For orientation: Ki means a dissociation constant, usually derived from enzyme kinetics or from competition with a known ligand. What is called IC50 is the point on the concentration scale where inhibition reaches its midpoint.

This note sets out measurements from ChEMBL document CHEMBL3763153, “Recent Update on Human Lactate Dehydrogenase Enzyme 5 (hLDH5) Inhibitors: A Promising Approach for Cancer Chemotherapy” (J Med Chem, 2016).

Test [1] deals with L-lactate dehydrogenase B chain (Homo sapiens, UniProt P07195).
Sequence of L-lactate dehydrogenase B chain (P07195 whole entry): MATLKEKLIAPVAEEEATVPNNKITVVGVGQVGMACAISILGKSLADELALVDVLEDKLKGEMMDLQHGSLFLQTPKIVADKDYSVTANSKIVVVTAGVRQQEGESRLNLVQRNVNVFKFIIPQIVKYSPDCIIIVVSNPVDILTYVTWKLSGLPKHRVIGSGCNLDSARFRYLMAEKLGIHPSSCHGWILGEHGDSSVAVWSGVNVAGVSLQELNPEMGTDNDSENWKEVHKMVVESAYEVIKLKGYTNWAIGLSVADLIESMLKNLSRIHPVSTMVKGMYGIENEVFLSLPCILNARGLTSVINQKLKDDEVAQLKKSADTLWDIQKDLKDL
Description: Competitive inhibition of human LDH1 in presence of NADH
The target in test [2] is T1, L-lactate dehydrogenase A chain (Homo sapiens, UniProt P00338).
Description: Competitive inhibition of human LDH5 in presence of NADH
Test [3] has as its target T1, L-lactate dehydrogenase A chain. Description: Competitive inhibition of human LDH5 incubated for 15 mins in presence of NADH by fluorescence analysis.

For the compound `Cc1cc2c(C(C)C)c(O)c(O)c3c2c(c1-c1c(C)cc2c(C(C)C)c(O)c(O)c4c2c1OC4=O)OC3=O`, the inhibition constant (Ki) turned out to be 400 nM in test [1] and 600 nM in test [2]. Turning to `CCCc1c(O)c(O)c(C(=O)O)c2ccc(C)cc12`, the affinity in test [2] corresponds to a Ki of 1000 nM. Compound `O=C(O)CCCc1ccc(-n2cc(CCCn3cc(C4=C(c5c[nH]c6ccccc56)C(=O)NC4=O)c4ccccc43)nn2)cc1` gave an IC50 in test [2] of 14800 nM. As for `Cc1cc2c(C(C)C)c(O)c(O)c(C(=O)O)c2cc1Cc1ccccc1`, affinity in test [2] was put at a Ki of 200 nM. Consider `O=C(O)CCCCn1cc(CCCCn2cc(C3=C(c4c[nH]c5ccccc45)C(=O)NC3=O)c3ccccc32)nn1`, for which, in test [2], it took 35900 nM to reach half-maximal inhibition (IC50).

On to `Cc1ccc(-c2cc3c(C(=O)O)c(O)c(O)c(C(C)C)c3cc2C)cc1`, for which the Ki in test [1] is 8000 nM; in test [2], 30 nM. Turning to `Cc1ccccc1-c1cc2c(C(=O)O)c(O)c(O)c(C(C)C)c2cc1C`, the Ki in test [1] is > 125000 nM; in test [2] it was 3000 nM. Take `O=C(O)c1cc2c(C(F)(F)F)cc(-c3ccccc3)cc2n1O[C@@H]1O[C@H](CO)[C@@H](O)[C@H](O)[C@H]1O`: the Ki in test [3] stood at 19500 nM. Take `Cc1cc2c(C(C)C)c(O)c(O)c(C(=O)O)c2cc1Cc1ccc(Cl)cc1`: the values for the Ki in test [1] and in test [2] were 8000 nM and 1000 nM, respectively.

Take `Cc1cc2c(C(C)C)c(O)c(O)c(C(=O)O)c2cc1-c1ccc2c(C(C)C)c(O)c(O)c(C(=O)O)c2c1`: the Ki amounted to 700 nM in test [1] and 1300 nM in test [2]. Compound `Cc1cccc(-c2cc3c(C(=O)O)c(O)c(O)c(C(C)C)c3cc2C)c1` registered a Ki in test [2] of 200 nM.

For the compound `Cc1cc2c(C(C)C)c(O)c(O)c3c2c(c1-c1c(C)cc2c(C(C)C)c(O)c(O)c4c2c1OC4=N)OC3=N`, the Ki in test [1] was found to be 92000 nM; in test [2], 2500 nM. For `CC(=O)Oc1c(-c2c(C)cc3c(C(C)C)c(O)c(O)c(C#N)c3c2OC(C)=O)c(C)cc2c(C(C)C)c(O)c(O)c(C#N)c12`, the inhibitory constant (Ki) in test [2] is 2000 nM. Same read-out and setting: to `CCCCC(=O)Oc1c(-c2c(C)cc3c(C(C)C)c(O)c(O)c(C#N)c3c2OC(=O)CCCC)c(C)cc2c(C(C)C)c(O)c(O)c(C#N)c12` belongs 9100 nM; to `Cc1cc2c(C(C)C)c(O)c(O)c(C=O)c2c(O)c1-c1c(C)cc2c(C(C)C)c(O)c(O)c(C=O)c2c1O` [GOSSYPOL], 1900 nM. In test [1], `NC(=O)C(=O)O` [OXAMATE] yielded an inhibition constant Ki of 94400 nM.
